Assay type in all cases: cell-based
One assay deals with M3 (Homo sapiens, UniProt P20309). Nature of the assay: In vitro functional assay of muscarinic acetylcholine receptor activity, M3. Particulars: antagonist IC50 at M3; read-out: M3 IC50. On the procedure:
[The procedure below names another target; the source lists this target under the same test.] (§1) CHO-K1 cells stably expressing human M1 receptor with Aequorin (Perkin Elmer) were grown in F12 media, 10% FBS with 0.4 mg/mL geneticin and […]. Cells were grown to confluence and frozen down to be assayed at a later date. On the day of the experiment cells were thawed in a 37° C. water bath, resuspended in DMEM/HAM's F12 with HEPES (Invitrogen)+0.1% protease-free BSA (assay buffer), and spun down to remove freezing media. After centrifugation, supernatant was removed and 12 mL of assay buffer was added. Coelenterazine h (Promega) was added to the cells at a final concentration of 5 uM and incubated for 4 hours at room temperature in the dark. Compound master plate-96 deep well (Corning) were formatted in a 8-point DRC in assay buffer with 0.2% DMSO at a starting concentration of 60 uM (2×). After 4 hours of incubation, cells were plated at a concentration of 5×10^5 cells/well in 96 well white-walled, tissue culture-treated, clear-bottom plates (VWR). Compounds were added to the daughter plate, and cells plus compound were incubated at room temperature for 30 minutes in the dark.
(§2) Calcium flux was measured using the FlexStation 3 (Molecular Devices). To measure the antagonist dose-response, the EC80 of Acetylcholine was injected to the daughter plate using the automated compound transfer function of the Flex Station, and the increase in luminescence was measured over time. Antagonist activity was analyzed as a concentration dependent decrease in the EC80 acetylcholine response. Dose response curves were generated using Prism (GraphPad Software). The IC50 of the compounds was calculated from the dose response curve.

Another assay concerns the target T1, human M1 receptor (Homo sapiens, UniProt P11229).
T1 sequence (P11229 1-460): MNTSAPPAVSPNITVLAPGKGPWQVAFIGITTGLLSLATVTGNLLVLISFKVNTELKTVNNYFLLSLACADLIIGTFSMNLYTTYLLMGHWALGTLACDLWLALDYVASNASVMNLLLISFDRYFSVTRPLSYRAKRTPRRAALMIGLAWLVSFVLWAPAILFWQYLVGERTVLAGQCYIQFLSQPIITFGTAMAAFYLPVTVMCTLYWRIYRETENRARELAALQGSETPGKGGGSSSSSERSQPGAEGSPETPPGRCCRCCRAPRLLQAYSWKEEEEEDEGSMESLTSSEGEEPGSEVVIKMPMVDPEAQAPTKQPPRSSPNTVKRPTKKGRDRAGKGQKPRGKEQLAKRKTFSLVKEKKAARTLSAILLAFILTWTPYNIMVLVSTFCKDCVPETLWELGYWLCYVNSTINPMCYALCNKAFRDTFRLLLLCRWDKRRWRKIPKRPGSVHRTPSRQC
Nature of the assay: In vitro functional assay of muscarinic acetylcholine receptor activity (aequorin calcium flux, antagonist mode vs EC80 acetylcholine), M1. On the procedure:
as §1, §2
In general terms: Calcium flux is commonly read through the fluorescence of an indicator in the cells.

The next assay concerns the target T2, M2 (Homo sapiens, UniProt P08172).
T2 sequence (P08172 1-466): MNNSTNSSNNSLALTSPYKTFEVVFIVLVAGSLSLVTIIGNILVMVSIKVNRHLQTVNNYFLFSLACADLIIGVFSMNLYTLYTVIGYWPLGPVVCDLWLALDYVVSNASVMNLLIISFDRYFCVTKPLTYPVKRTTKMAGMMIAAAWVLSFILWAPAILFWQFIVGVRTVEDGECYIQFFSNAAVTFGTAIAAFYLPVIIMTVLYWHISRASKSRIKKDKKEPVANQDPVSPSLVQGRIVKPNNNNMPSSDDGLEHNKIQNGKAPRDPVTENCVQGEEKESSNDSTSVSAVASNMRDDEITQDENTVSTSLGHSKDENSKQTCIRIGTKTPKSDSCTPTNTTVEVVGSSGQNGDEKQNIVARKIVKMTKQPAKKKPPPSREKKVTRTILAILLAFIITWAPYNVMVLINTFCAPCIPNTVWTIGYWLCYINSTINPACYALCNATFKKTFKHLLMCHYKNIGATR
Nature of the assay: In vitro functional assay of muscarinic acetylcholine receptor activity, M2. The method, then: [The procedure below names another target; the source lists this target under the same test.] as §1, §2

Setting [1] is: CHO-K1 cells stably expressing human M1 receptor with Aequorin, decrease in EC80 acetylcholine response, read-out: M1 IC50.
Where [2] appears, read: antagonist IC50 at M2, read-out: M2 IC50.

Structures are written as SMILES. Like-named read-outs stand apart in the source and are kept apart here.

Chain of M3 (P20309 whole entry): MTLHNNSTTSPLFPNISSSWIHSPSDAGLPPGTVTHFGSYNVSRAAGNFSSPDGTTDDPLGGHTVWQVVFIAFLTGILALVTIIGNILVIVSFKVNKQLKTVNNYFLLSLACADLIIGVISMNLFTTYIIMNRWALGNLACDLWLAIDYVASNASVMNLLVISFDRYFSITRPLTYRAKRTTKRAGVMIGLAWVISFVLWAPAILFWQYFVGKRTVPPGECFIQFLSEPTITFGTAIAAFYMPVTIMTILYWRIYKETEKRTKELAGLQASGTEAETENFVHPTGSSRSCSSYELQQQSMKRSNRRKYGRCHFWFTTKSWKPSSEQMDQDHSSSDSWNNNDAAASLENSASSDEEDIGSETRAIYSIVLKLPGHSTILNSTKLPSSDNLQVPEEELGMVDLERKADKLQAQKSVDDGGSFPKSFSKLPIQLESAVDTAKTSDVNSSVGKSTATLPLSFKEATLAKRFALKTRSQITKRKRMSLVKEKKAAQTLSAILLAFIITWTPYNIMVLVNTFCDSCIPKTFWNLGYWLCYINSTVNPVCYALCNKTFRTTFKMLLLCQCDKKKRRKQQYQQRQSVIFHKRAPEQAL

As for `C[C@@H]1CN(c2ccc(F)c(C#N)c2)CCN1C(=O)CCCc1cccc2ncccc12` [Example 23, (R)-2-fluoro-5-(3-methyl-4-(4-(quinolin-5-yl)butanoyl)piperazin-1-yl)benzonitrile], the results for the IC50 on M3, on human M1 receptor (setting [1]) and at M2 (setting [2]) were 1 to 10 µM, under 0.1 µM and 1 to 10 µM, respectively.

Take `N#Cc1ccc(N2C3CCC2CN(C(=O)CCS(=O)(=O)c2cccc4ncsc24)C3)nc1` [Example 24, 6-{3-[3-(1,3-benzothiazole-7-sulfonyl)propanoyl]-3,8-diazabicyclo[3.2.1]octan-8-yl}pyridine-3-carbonitrile]: the IC50 on M3 was 0.1 to 1 µM; at human M1 receptor, under 0.1 µM; on M2 (setting [2]), 0.1 to 1 µM.

On to `Cc1cc(C#N)ncc1N1CCN(C(=O)CCS(=O)(=O)c2cccc3ncsc23)[C@@H](C)C1` [Example 25, 5-[(3S)-4-[3-(1,3-benzothiazole-7-sulfonyl)propanoyl]-3-methylpiperazin-1-yl]-4-methylpyridine-2-carbonitrile], for which the IC50 was over 10 µM on M3, under 0.1 µM at human M1 receptor (setting [1]) and 0.1 to 1 µM at M2 (setting [2]).

For the compound `C[C@H]1CN(c2c[nH]c(=O)cc2Cl)CCN1C(=O)CCS(=O)(=O)c1cccc2ncsc12` [Example 26, 5-[(3S)-4-[3-(1,3-benzothiazole-7-sulfonyl)propanoyl]-3-methylpiperazin-1-yl]-4-chloro-1,2-dihydropyridin-2-one], the IC50 was over 10 µM on M3, 0.1 to 1 µM on human M1 receptor (setting [1]) and over 10 µM at M2 (setting [2]).

Regarding `N#Cc1ccc(C2=CC3CCC2CN3C(=O)CCS(=O)(=O)c2cccc3ncsc23)nc1` (stereo not drawn) [Example 27, 6-{2-[3-(1,3-benzothiazole-7-sulfonyl)propanoyl]-2-azabicyclo[2.2.2]oct-5-en-5-yl}pyridine-3-carbonitrile], the results for the IC50 at M3, on human M1 receptor (setting [1]) and at M2 (setting [2]) were 1 to 10 µM, under 0.1 µM and 0.1 to 1 µM, respectively.

For the compound `N#Cc1ccc(C2CC3CCC2CN3C(=O)CCS(=O)(=O)c2cccc3ncsc23)nc1` (stereo not drawn) [Example 28, 6-[2-[3-(1,3-benzothiazole-7-sulfonyl)propanoyl]-2-azabicyclo[2.2.2]octan-5-yl]pyridine-3-carbonitrile], the IC50 on M3 is 1 to 10 µM; at human M1 receptor (setting [1]), under 0.1 µM; at M2 (setting [2]) it was 0.1 to 1 µM.

Consider `N#Cc1ccc(N2C3CCC2CN(C(=O)CCNCc2cccc4ncsc24)C3)nc1` [Example 29, 6-[3-(3-{[(1,3-benzothiazol-7-yl)methyl]amino}propanoyl)-3,8-diaza-bicyclo[3.2.1]octan-8-yl]pyridine-3-carbonitrile], for which the IC50 is 1 to 10 µM on M3, under 0.1 µM at human M1 receptor and 1 to 10 µM on M2 (setting [2]).

As for `N#Cc1ccc(N2C3CCC2CN(C(=O)C2CC(NCc4cccc5ncsc45)C2)C3)nc1` (stereo not drawn) [Example 30, 6-[3-(3-{[(1,3-benzothiazol-7-yl)methyl]amino}cyclobutanecarbonyl)-3,8-diazabicyclo[3.2.1]octan-8-yl]pyridine-3-carbonitrile], the IC50 at M3 is over 10 µM; on human M1 receptor, 0.1 to 1 µM; on M2 (setting [2]), 1 to 10 µM.

`N#Cc1ccc(N2C3CCC2CN(C(=O)C2CC(Cc4cccc5ncsc45)C2)C3)nc1` (stereo not drawn) [Example 31, 6-(3-{3-[(1,3-benzothiazol-7-yl)methyl]cyclobutanecarbonyl}-3,8-diazabicyclo[3.2.1]octan-8-yl)pyridine-3-carbonitrile]: the results for the IC50 at M3, on human M1 receptor and at M2 (setting [2]) were 1 to 10 µM, under 0.1 µM and 1 to 10 µM, respectively.

On to `O=C(CCS(=O)(=O)c1cccc2ncsc12)N1CCC2(c3ccc(C(F)(F)F)cn3)CC2C1` (stereo not drawn) [Example 32, 3-(1,3-benzothiazole-7-sulfonyl)-1-{6-[5-(trifluoromethyl)pyridin-2-yl]-3-azabicyclo[4.1.0]heptan-3-yl}propan-1-one], for which the IC50 fell in the range of 1 to 10 µM on M3, 0.1 to 1 µM on human M1 receptor (setting [1]) and 1 to 10 µM on M2 (setting [2]).

Turning to `N#Cc1ccc(N2C3CCC2CN(C(=O)CCNCc2cccc4ncnn24)C3)nc1` [Example 33, 6-(3-{3-[({[1,2,4]triazolo[1,5-a]pyridin-5-yl}methyl)amino]propanoyl}-3,8-diazabicyclo[3.2.1]octan-8-yl)pyridine-3-carbonitrile], the IC50 at M3 was over 10 µM; at human M1 receptor it was under 0.1 µM; on M2 (setting [2]), 1 to 10 µM.

On to `N#Cc1ccc(N2C3CCC2CN(C(=O)CCNCc2c(F)ccc4nccn24)C3)nc1` [Example 34, 6-(3-{3-[({6-fluoroimidazo[1,2-a]pyridin-5-yl}methyl)amino]propanoyl}-3,8-diazabicyclo[3.2.1]octan-8-yl)pyridine-3-carbonitrile], for which the IC50 at M3 was 1 to 10 µM; on human M1 receptor it was under 0.1 µM; on M2 (setting [2]), 1 to 10 µM.

Take `N#Cc1ccc(N2C3CCC2CN(C(=O)CCN(Cc2cccc4ncsc24)C2CC2)C3)nc1` [Example 35, 6-[3-(3-{[(1,3-benzothiazol-7-yl)methyl](cyclopropyl)amino}propanoyl)-3,8-diazabicyclo[3.2.1]octan-8-yl]pyridine-3-carbonitrile]: the IC50 is 0.1 to 1 µM at M3, under 0.1 µM at human M1 receptor and 0.1 to 1 µM at M2 (setting [2]).

As to `[2H]C([2H])(NCCC(=O)N1CC2CCC(C1)N2c1ccc(C#N)cn1)c1cccc2ncsc12` [Example 36, 6-[3-(3-[(benzo[d]thiazol-7-ylmethyl-d2)amino]propanoyl)-3,8-diazabicyclo[3.2.1]octan-8-yl]pyridine-3-carbonitrile], the IC50 is 1 to 10 µM on M3, under 0.1 µM on human M1 receptor and 1 to 10 µM on M2 (setting [2]).

Turning to `N#Cc1ccc(N2C3CCC2CN(C(=O)CCOCc2cccc4nccnc24)C3)nc1` [Example 37, 6-(3-{3-[(quinoxalin-5-yl)methoxy]propanoyl}-3,8-diazabicyclo[3.2.1]octan-8-yl)pyridine-3-carbonitrile], the IC50 at M3 is over 10 µM; at human M1 receptor, under 0.1 µM; on M2 (setting [2]) it was 1 to 10 µM.

As for `N#Cc1ccc(N2[C@@H]3CC[C@H]2CN(C(=O)COCc2cccc4nccnc24)C3)nc1` [Example 38, 6-((1R, 5S)-3-(2-(quinoxalin-5-ylmethoxy)acetyl)-3,8-diazabicyclo[3.2.1]octan-8-yl)nicotinonitrile], the IC50 on M3 was 1 to 10 µM; on human M1 receptor, under 0.1 µM; on M2 (setting [2]), 0.1 to 1 µM.

For the compound `N#Cc1ccc(N2C3CCC2CN(C(=O)CCOCc2cccc4ncnn24)C3)nc1` [Example 39, 6-{3-[3-({[1,2,4]triazolo[1,5-a]pyridin-5-yl}methoxy)propanoyl]-3,8-diazabicyclo[3.2.1]octan-8-yl}pyridine-3-carbonitrile], the values for the IC50 at M3, at human M1 receptor and on M2 (setting [2]) were 1 to 10 µM, under 0.1 µM and 1 to 10 µM, respectively.

Consider `N#Cc1ccc(N2[C@@H]3CC[C@H]2CN(C(=O)CCOCc2cccc4ncccc24)C3)nc1` [Example 40, 6-((1R, 5S)-3-(3-(quinolin-5-ylmethoxy)propanoyl)-3,8-diazabicyclo[3.2.1]octan-8-yl)nicotinonitrile], for which the results for the IC50 on M3, at human M1 receptor and against M2 were over 10 µM, under 0.1 µM and 0.1 to 1 µM, respectively.

`N#Cc1ccc(N2C3CCC2CN(C(=O)CCOCc2cccn4ncnc24)C3)nc1` [Example 42, 6-{3-[3-({[1,2,4]triazolo[1,5-a]pyridin-8-yl}methoxy)propanoyl]-3,8-diazabicyclo[3.2.1]octan-8-yl}pyridine-3-carbonitrile]: the IC50 was 1 to 10 µM at M3, under 0.1 µM on human M1 receptor and 1 to 10 µM at M2 (setting [2]).

Usually IC50 stands for the concentration at which inhibition is half-maximal.

Source of the values: patent US11512090B2, “Muscarinic acetylcholine M1 receptor antagonists” (PIPELINE THERAPEUTICS, INC., priority 2018, dated 2022).
